Where a name gives a salt, the structure may show the parent alone.

Holding throughout (type): cell-based
For test [1], the target named is T1, NMDA receptor subunits 1A/2B (Rattus norvegicus, UniProt P35439+Q00960).
T1 construct: expressed in transfected cells; host or cells: Xenopus laevis oocytes (cRNA injection; clones from Dr. P. H. Seeburg)
Description: Electrophysiological assay at NMDA receptor subunits expressed in Xenopus oocytes, 1A/2B. As to conditions: Xenopus oocytes; glutamate 100 μm and glycine 1-100 μm; read-out: Subunits IC50, 1A/2B. As to the method: (§1) Many of the properties of native NMDA receptors are seen in recombinant homomeric NR1 receptors. These properties are altered by the NR2 subunits. Recombinant NMDA receptors expressed in Xenopus oocytes have been studied by voltage-clamp recording, as has developmental and regional expression of the mRNAs encoding NMDA receptor subunits. Electrophysiological assays were utilized to characterize the actions of compounds at NMDA receptors expressed in Xenopus oocytes. The compounds were assayed at four subunit combinations of cloned rat NMDA receptors, corresponding to three putative NMDA receptor subtypes [Moriyoshi, et al. Nature 1991, 354, 31-37; Monyer et al, Science 1992, 256, 1217-1221; Kutsuwada et al, Nature 1992, 358, 36-41; Sugihara et al, Biochem. Biophys Res. Commun. 1992, 185, 826-832].
(§2) Electrophysiological Assays at NMDA Receptor Subunits
(§3) Preparation of RNA. cDNA clones encoding the NR1A, NR2A, NR2B, NR2C and NR2D rat NMDA receptor subtypes were provided by Dr. P. H. Seeburg (see, Moriyoshi et al., Nature (Lond.) 354:31-37 (1991); Kutsuwada et al., Nature (Lond.) 358:36-41 (1992) Monyer et al., Science (Washington, D.C.) 256:1217-1221 (1992); Ikeda et al., FEBS Lett. 313:34-38 (1992); Ishii et al., J. Biol. Chem. 268:2836-2843 (1993) for details of these clones or their mouse homologs). The clones were transformed into appropriate host bacteria and plasmid preparations were made with conventional DNA purification techniques. A sample of each clone was linearized by restriction enzyme digestion and cRNA was synthesized with T3 RNA polymerase. The cRNA was diluted to 400 ng/μl and stored in 1 μl aliquots at -80° C. until injection.
(§4) The Xenopus oocyte expression system. Mature female Xenopus laevis were anaesthetized (20-40 min) using 0.15% 3-aminobenzoic acid ethyl ester (MS-222) and 2-4 ovarian lobes were surgically removed. Oocytes at developmental stages IV-VI (Dumont, J. N., J. Morphol. 136:153-180 (1972)), were dissected from the ovary still surrounded by enveloping ovarian tissues. Follicle-enclosed oocytes were micro-injected with 1:1 mixtures of cRNA:NR1A+NR2A, 2B, 2C or 2D; injecting ~2,5, or 20 ng of RNA encoding each receptor subunit. NR1A encoding cRNA was injected alone at ~20 ng. Oocytes were stored in Barth's medium containing (in mM):NaCl, 88; KCl, 1; CaCl2, 0.41; Ca(NO3)2, 0.33; MgSO4, 0.82 NaHCO3, 2.4; HEPES 5, pH 7.4, with 0.1 mg/ml gentamicin sulphate. While oocytes were still surrounded by enveloping ovarian tissues the Barth's medium was supplemented with 0.1% bovine serum. Oocytes were defolliculated 1-2 days following injections by treatment with collagenase (0.5 mg/ml Sigma Type I for 0.5-1 hr) (Miledi and Woodward, J. Physiol. (Lond.) 416:601-621 (1989)) and subsequently stored in serum-free medium.
(§5) Electrical recordings were made using a conventional two-electrode voltage clamp (Dagan TEV-200) over periods ranging between 3-21 days following injection. (Woodward et al., Mol. Pharmacol. 41: 89-103 (1992)). Oocytes were placed in a 0.1 ml recording chamber continuously perfused (5-15 ml min^-1 ) with frog Ringer's solution containing (in mM):NaCl, 115; KCl, 2; CaCl2, 1.8; HEPES, 5; pH 7.4. Drugs were applied by bath perfusion. Using oocytes expressing different subunit combinations of NMDA receptor, NMDA currents were activated by co-application of glutamate (100 μm) and glycine (1-100 μm). Inhibitory potency of the novel antagonists was assessed on responses elicited by fixed concentrations of glutamate and glycine, by measuring reductions in current induced by progressively increasing concentrations of antagonist. Concentration-inhibition curves were fit with equation 1.
(§6) I/Icontrol =1/(1+([antagonist]/10^-pIC50)^n) Eq. 1
(§7) in which Icontrol is the current evoked by agonists alone, pIC50 =-log IC50, IC50 is the concentration of antagonist that produces half maximal inhibition, and n is the slope factor. (De Lean et al., Am. J. Physiol. 235:E97-102 (1978)). […]

Test [2] deals with T2, NMDA receptor subunits 1A/2C (Rattus norvegicus, UniProt P35439+Q00961).
T2 construct: expressed in transfected cells; host or cells: Xenopus laevis oocytes (cRNA injection; clones from Dr. P. H. Seeburg)
T2 sequence (Q00961 20-1237, other chains not shown): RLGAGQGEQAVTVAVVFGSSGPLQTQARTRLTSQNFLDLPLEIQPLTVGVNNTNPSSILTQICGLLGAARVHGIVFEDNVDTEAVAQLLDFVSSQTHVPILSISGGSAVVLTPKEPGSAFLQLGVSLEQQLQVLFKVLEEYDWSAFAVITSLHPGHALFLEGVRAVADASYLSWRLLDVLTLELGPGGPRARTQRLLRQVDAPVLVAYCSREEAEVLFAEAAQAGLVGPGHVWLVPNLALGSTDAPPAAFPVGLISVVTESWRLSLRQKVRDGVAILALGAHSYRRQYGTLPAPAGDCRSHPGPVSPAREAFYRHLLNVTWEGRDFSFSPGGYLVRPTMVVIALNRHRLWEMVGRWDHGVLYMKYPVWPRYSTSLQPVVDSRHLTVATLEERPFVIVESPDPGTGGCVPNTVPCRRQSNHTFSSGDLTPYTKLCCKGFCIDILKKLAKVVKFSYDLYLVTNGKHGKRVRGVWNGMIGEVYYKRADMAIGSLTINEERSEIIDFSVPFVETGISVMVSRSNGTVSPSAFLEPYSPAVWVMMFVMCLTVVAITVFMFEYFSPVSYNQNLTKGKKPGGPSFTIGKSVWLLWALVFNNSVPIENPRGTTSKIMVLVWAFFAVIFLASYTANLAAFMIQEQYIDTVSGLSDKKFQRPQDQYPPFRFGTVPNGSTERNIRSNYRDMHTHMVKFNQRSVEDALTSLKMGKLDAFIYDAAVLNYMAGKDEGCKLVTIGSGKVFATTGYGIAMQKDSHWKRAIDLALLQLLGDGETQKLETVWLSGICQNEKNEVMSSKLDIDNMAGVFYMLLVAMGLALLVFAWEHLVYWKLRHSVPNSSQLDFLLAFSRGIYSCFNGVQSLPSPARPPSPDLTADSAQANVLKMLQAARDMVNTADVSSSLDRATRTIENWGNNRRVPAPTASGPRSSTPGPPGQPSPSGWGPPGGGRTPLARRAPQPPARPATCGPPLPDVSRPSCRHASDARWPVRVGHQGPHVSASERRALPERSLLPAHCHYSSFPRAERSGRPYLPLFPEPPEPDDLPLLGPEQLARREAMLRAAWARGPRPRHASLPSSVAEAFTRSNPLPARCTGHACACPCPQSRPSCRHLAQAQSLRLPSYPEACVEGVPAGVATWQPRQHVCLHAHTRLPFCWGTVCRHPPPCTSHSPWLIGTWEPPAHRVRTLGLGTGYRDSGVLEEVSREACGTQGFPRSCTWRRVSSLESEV
Nature of the test: Electrophysiological assay at NMDA receptor subunits expressed in Xenopus oocytes, 1A/2C. As to conditions: Xenopus oocytes; glutamate 100 μm and glycine 1-100 μm; read-out: Subunits IC50, 1A/2C. The method, then: as §1, §2, §3, §4, §5, §6, §7

Test [3] deals with T3, NMDA receptor subunits 1A/2A (Rattus norvegicus, UniProt P35439+Q00959).
T3 construct: expressed in transfected cells; host or cells: Xenopus laevis oocytes (cRNA injection; clones from Dr. P. H. Seeburg)
T3 sequence (Q00959 20-1464 limits assumed, other chains not shown): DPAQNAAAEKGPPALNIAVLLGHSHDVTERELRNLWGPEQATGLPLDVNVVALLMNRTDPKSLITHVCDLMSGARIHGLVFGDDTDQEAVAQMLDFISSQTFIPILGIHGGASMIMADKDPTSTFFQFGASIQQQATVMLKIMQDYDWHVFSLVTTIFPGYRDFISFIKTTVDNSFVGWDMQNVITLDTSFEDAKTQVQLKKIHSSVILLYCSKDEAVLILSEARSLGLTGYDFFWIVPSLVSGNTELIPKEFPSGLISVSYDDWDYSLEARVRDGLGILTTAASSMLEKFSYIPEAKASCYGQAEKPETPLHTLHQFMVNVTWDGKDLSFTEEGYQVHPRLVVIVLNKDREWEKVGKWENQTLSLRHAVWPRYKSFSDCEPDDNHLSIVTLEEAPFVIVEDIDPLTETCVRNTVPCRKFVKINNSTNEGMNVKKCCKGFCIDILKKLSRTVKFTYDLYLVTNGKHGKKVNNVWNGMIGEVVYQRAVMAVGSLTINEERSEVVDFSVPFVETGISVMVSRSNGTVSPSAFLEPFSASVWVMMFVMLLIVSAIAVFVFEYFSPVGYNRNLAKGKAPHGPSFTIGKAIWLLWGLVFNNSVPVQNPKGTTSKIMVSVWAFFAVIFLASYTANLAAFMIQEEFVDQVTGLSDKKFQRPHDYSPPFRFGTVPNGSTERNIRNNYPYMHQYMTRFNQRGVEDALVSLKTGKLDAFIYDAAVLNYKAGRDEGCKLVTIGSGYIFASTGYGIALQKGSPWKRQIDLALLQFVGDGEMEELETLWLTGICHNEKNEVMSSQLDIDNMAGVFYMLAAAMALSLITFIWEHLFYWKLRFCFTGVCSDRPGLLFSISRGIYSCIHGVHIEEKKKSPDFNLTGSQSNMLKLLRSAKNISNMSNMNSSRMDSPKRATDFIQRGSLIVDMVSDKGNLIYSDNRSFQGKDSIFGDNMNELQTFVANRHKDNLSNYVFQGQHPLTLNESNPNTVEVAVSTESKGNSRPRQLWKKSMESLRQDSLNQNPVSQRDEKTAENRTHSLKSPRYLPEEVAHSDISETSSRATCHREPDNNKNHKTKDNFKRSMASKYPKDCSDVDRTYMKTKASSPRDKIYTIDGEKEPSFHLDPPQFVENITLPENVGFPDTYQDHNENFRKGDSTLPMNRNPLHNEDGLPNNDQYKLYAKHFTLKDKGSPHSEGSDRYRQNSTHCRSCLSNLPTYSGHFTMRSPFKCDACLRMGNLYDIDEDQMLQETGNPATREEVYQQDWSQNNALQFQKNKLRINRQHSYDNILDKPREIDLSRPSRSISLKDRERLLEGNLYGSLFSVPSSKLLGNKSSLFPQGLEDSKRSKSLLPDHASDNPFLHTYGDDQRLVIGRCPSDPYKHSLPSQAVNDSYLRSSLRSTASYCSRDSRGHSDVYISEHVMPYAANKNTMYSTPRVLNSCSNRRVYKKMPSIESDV
Nature of the test: Electrophysiological assay at NMDA receptor subunits expressed in Xenopus oocytes, 1A/2A. Particulars: glutamate 100 μm and glycine 1-100 μm. The method, then: as §1, §2, §3, §4, §5, §6, §7

T1 sequence (Q00960 27-1482, other chains not shown): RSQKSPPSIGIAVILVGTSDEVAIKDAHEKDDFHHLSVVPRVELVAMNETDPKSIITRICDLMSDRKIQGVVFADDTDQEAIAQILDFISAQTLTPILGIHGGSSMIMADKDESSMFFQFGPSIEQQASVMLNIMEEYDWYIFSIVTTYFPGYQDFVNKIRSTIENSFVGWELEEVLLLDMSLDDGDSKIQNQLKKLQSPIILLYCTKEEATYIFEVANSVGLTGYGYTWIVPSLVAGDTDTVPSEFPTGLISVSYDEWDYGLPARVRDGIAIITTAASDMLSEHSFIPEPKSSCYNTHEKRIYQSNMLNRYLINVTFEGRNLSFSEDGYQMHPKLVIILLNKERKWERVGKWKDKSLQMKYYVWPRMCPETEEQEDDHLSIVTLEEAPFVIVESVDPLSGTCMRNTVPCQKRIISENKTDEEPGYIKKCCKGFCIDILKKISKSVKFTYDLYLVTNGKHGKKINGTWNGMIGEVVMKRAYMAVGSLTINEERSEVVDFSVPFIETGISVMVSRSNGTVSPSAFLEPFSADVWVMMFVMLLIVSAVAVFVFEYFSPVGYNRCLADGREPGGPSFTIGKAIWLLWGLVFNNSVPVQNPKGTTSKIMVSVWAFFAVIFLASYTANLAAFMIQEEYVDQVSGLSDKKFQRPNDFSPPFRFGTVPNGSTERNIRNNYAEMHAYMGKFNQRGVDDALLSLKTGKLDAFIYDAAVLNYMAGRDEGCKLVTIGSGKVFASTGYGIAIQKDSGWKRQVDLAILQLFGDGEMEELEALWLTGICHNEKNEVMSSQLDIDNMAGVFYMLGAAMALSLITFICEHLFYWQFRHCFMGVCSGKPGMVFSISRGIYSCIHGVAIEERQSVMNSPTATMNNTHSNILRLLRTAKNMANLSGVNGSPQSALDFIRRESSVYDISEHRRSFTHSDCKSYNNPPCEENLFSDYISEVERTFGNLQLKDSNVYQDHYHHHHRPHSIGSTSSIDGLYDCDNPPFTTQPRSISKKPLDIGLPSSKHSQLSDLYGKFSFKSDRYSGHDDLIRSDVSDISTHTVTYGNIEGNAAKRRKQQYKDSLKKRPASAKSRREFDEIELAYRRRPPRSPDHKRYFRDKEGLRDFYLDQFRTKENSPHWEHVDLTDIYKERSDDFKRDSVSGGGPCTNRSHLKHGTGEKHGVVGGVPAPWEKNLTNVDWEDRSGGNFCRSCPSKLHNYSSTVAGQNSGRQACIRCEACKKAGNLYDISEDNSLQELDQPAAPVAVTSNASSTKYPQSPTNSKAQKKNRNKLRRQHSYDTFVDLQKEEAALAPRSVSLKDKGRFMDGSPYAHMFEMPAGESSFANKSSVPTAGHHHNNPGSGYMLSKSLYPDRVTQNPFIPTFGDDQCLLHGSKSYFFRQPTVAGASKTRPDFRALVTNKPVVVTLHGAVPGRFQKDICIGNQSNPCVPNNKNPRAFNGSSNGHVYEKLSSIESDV

Regarding `c1ccc(OCCCN2CCC(c3ccccc3)CC2)cc1` [Ex. 7, 1-(3-Phenoxypropyl)-4-phenylpiperidine], the IC50 in test [1] was 10 µM; in test [2], > 100 µM; in test [3], > 100 µM.

Consider `Cc1cc(OCCN2CCC(Cc3ccc(F)cc3)CC2)ccc1O` [Ex. 152, 1-[2-(4-Hydroxy-3-methylphenoxy)ethyl]-4-(4-fluorobenzyl)piperidine hydrochloride], for which the IC50 in test [1] is 0.04 µM; in test [2] it was 200 µM; in test [3], 90 µM.

Consider `Cc1ccc(CC2CCN(CCOc3cccc(O)c3)CC2)cc1` [Ex. 160, 1-[2-(3-Hydroxyphenoxy)ethyl]-4-(4-methylbenzyl)piperidine hydrochloride], for which the results for the IC50 in test [1], in test [2] and in test [3] were 0.2 µM, 120 µM and 60 µM, respectively.

As to `Cc1ccc(CC2(O)CCN(CCOc3ccc(O)c(C)c3)CC2)cc1` [Ex. 155, 1-[2-(4-hydroxy-3-methylphenoxy)ethyl]-4-hydroxy-4-(4-methylbenzyl)piperidine hydrochloride], the IC50 was 0.03 µM in test [1], > 300 µM in test [2] and 170 µM in test [3].

For `Cc1ccc(CC2CCN(CCOc3ccc(O)c(C)c3)CC2)cc1` [Ex. 153, 1-[2-(4-Hydroxy-3-methylphenoxy)ethyl]-4-(4-methylbenzyl)piperidine hydrochloride], the IC50 in test [1] is 0.04 µM; in test [2] it was 70 µM; in test [3] it was 65 µM.

Consider `CC(CCOc1ccccc1)N1CCC(Cc2ccccc2)CC1` (stereo not drawn) [Ex. 41, 4-Benzyl-1-(1-methyl-3-phenoxypropyl)piperidine hydrochloride], for which the IC50 in test [1] was 5 µM; in test [2], > 100 µM; in test [3] it was 90 µM.

For the compound `Cc1ccc(CC2CCN(CCOc3ccc4cc(O)ccc4c3)CC2)cc1` [Ex. 192, 4-(4-Methylbenzyl)-1-(2-(2-hydroxynaphth-6-oxy)ethyl)piperidine], the IC50 in test [1] was 0.1 µM; in test [2], > 300 µM; in test [3], > 300 µM.

For the compound `Fc1ccc(OCCN2CCC(Cc3cccc(F)c3)CC2)cc1` [Ex. 113, 4-(3-Fluorobenzyl)-1-(2-(4-fluorophenoxy)ethyl)piperidine hydrochloride], the IC50 turned out to be 30 µM in test [1], 200 µM in test [2] and 200 µM in test [3].

With `Oc1ccc(CCCN2CCC(Cc3ccc(Cl)cc3)CC2)cc1` [Ex. 107, 1-[3-(4-Hydroxyphenyl)propyl]-4-(4-chlorobenzyl)piperidine hydrochloride], the figures for the IC50 in test [1], in test [2] and in test [3] were 0.03 µM, 270 µM and 60 µM, respectively.

Take `Cc1ccc(CC2CCN(CCOc3ccccc3O)CC2)cc1` [Ex. 161, 1-[2-(2-Hydroxyphenoxy)ethyl]-4-(4-methylbenzyl)piperidine hydrochloride]: the IC50 in test [1] is 0.04 µM; in test [2], 170 µM; in test [3] it was 85 µM.

As to `O=c1[nH]c2cccc(OCCN3CCC(Cc4ccccc4)CC3)c2[nH]c1=O` [Ex. 54, 4-Benzyl-1-[2-(2,3-dioxoquinoxalin-5-oxy)ethyl]piperidine], the IC50 in test [1] is 3.6 µM; in test [2], > 100 µM; in test [3], 60 µM.

In the case of `CN(CCN1CCC(Cc2ccccc2)CC1)c1ccc(O)cc1` [Ex. 163, 4-Benzyl-1-(2-(N-methyl-4-hydroxyanilino)ethyl)piperidine dihydrochloride], the IC50 in test [1] is 0.1 µM; in test [2], > 300 µM; in test [3], 35 µM.

For `O=[N+]([O-])c1cccc(OCCN2CCC(Cc3ccccc3)CC2)c1` [Ex. 62, 4-Benzyl-1-[2-(3-nitrophenoxy)ethyl]piperidine], the values for the IC50 in test [1], in test [2] and in test [3] were 6 µM, > 100 µM and 80 µM, respectively.

With `NNC(=O)Cc1cccc(OCCN2CCC(Cc3ccccc3)CC2)c1` [Ex. 20, 4-Benzyl-1-(2-(3-(hydrazinocarbonylmethyl)phenoxy)ethyl)piperidine], the IC50 was 0.7 µM in test [1], > 100 µM in test [2] and 5.5 µM in test [3].

Take `O=[N+]([O-])c1ccc(CC2CCN(CCOc3ccc(F)cc3)CC2)cc1` [Ex. 36, 1-(2-(4-Fluorophenoxy)ethyl)-4-(4-nitrobenzyl)piperidine hydrobromide]: the IC50 in test [1] was 22 µM; in test [2], > 100 µM; in test [3], 40 µM.

For `O=[N+]([O-])c1ccc(CC2CCN(CCCOc3ccccc3)CC2)cc1` [Ex. 37, 4-(4-Nitrobenzyl)-1-(3-phenoxypropyl)piperidine hydrobromide], the IC50 was 10 µM in test [1], > 100 µM in test [2] and 14 µM in test [3].

With `O=C1Cc2cc(OCCN3CCC(Cc4ccc(F)cc4)CC3)ccc2N1` [Ex. 195, 4-(4-Fluorobenzyl)-1-(2-(2-oxo-1,3-dihydroindol-5-oxy)ethyl)piperidine], the IC50 in test [1] is 0.07 µM; in test [2], > 300 µM; in test [3] it was > 300 µM.

Regarding `c1ccc(OCCCCN2CCC(c3ccccc3)CC2)cc1` [Ex. 9, 1-(4-Phenoxybutyl)-4-phenylpiperidine], the IC50 in test [1] was 10 µM; in test [2] it was > 100 µM; in test [3], > 100 µM.

For the compound `Oc1ccc(CCCN2CCC(Cc3ccccc3)CC2)cc1` [Ex. 106, 1-[3-(4-Hydroxyphenyl)propyl]-4-benzylpiperidine hydrochloride], the results for the IC50 in test [1], in test [2] and in test [3] were 0.02 µM, 260 µM and 90 µM, respectively.

As to `CC(COc1ccccc1)N1CCC(Cc2ccccc2)CC1` (stereo not drawn) [Ex. 21, 4-Benzyl-1-(1-methyl-2-phenoxyethyl)piperidine hydrobromide], the IC50 in test [1] was 2.5 µM; in test [2], > 100 µM; in test [3], 45 µM.

Take `c1ccc(CC2CCN(CCOc3cccc4cccnc34)CC2)cc1` [Ex. 51, 4-Benzyl-1-[2-(8-quinolinoxy)ethyl]piperidine]: the IC50 in test [1] was 5 µM; in test [2], > 100 µM; in test [3], 80 µM.

For `Oc1ccc2cc(OCCN3CCC(Cc4ccc(F)cc4)CC3)ccc2c1` [Ex. 191, 4-(4-Fluorobenzyl)-1-(2-(2-hydroxynaphth-6-oxy)ethyl)piperidine], the IC50 in test [1] was 0.1 µM; in test [2], > 300 µM; in test [3] it was 25 µM.

As for `Oc1ccc(CCN2CCC(Cc3ccccc3)CC2)cc1` [Ex. 108, 1-[2-(4-Hydroxyphenyl)ethyl]-4-benzylpiperidine hydrochloride], the figures for the IC50 in test [1], in test [2] and in test [3] were 0.25 µM, > 300 µM and 62 µM, respectively.

With `Oc1ccc(OCCN2CCC(c3ccccc3)CC2)cc1` [Ex. 127, 1-[2-(4-Hydroxyphenoxy)ethyl]-4-phenylpiperidine hydrochloride], the IC50 in test [1] was 5 µM; in test [2] it was > 300 µM; in test [3], 70 µM.

The values above are taken from patent US6124323A, “4-substituted piperidine analogs and their use as subtype selective NMDA receptor antagonists” (Warner-Lambert Company, priority 1998, dated 2000).
